Measurements: the CheMixHub viscosity set
± gives the uncertainty stated by the source.

Assay: xn = mol fraction of the nth substance listed

CCCCCCCCn1cc[n+](C)c1.[Cl-] + CCO
Conditions	viscosity [mPa·s]
298.15 K, 101 kPa, x2 = 0.1305	5426 ± 2200

CS(=O)(=O)[O-].C[N+](C)(CCO)CCO + CCO
Conditions	viscosity [mPa·s]
298.15 K, 101.33 kPa, x1 = 0.8954	947.5 ± 100

OCC(O)CO + CCO
298.15 K, 101 kPa
Conditions	viscosity [mPa·s]
x1 = 0.053	1.52 ± 0.02
x1 = 0.11	2.23 ± 0.03
x1 = 0.18	3.49 ± 0.05
x1 = 0.25	5.83 ± 0.08
x1 = 0.33	10.4 ± 0.16
x1 = 0.43	20.6 ± 0.36
x1 = 0.54	45.3 ± 1
x1 = 0.67	103.3 ± 3.6
x1 = 0.82	254 ± 15

COC(=O)CC(C)=O + CCCCCCCO
viscosity [mPa·s], 101.33 kPa
Conditions	x1 = 0.1016	x1 = 0.2071	x1 = 0.3081	x1 = 0.4096	x1 = 0.5099	x1 = 0.6072	x1 = 0.7071	x1 = 0.8059	x1 = 0.9033
298.15 K	4.066 ± 0.18	3.167 ± 0.14	2.651 ± 0.12	2.278 ± 0.11	2.012 ± 0.093	1.842 ± 0.086	1.663 ± 0.078	1.546 ± 0.073	1.512 ± 0.072
303.15 K	3.465 ± 0.16	2.734 ± 0.12	2.298 ± 0.11	1.981 ± 0.092	1.754 ± 0.082	1.624 ± 0.077	1.485 ± 0.071	1.393 ± 0.067	1.366 ± 0.066
308.15 K	2.97 ± 0.13	2.357 ± 0.11	1.998 ± 0.093	1.733 ± 0.081	1.545 ± 0.073	1.452 ± 0.069	1.337 ± 0.064	1.264 ± 0.061	1.245 ± 0.06

COC(=O)CC(C)=O + CCCO
viscosity [mPa·s], 101.3 kPa
Conditions	x1 = 0.1028	x1 = 0.2021	x1 = 0.3067	x1 = 0.407	x1 = 0.5069	x1 = 0.609	x1 = 0.7057	x1 = 0.8054	x1 = 0.9036
298.15 K	1.497 ± 0.037	1.333 ± 0.033	1.253 ± 0.031	1.221 ± 0.03	1.219 ± 0.03	1.238 ± 0.031	1.278 ± 0.032	1.339 ± 0.033	1.501 ± 0.1
303.15 K	1.337 ± 0.033	1.213 ± 0.03	1.128 ± 0.028	1.102 ± 0.028	1.104 ± 0.028	1.123 ± 0.028	1.163 ± 0.029	1.217 ± 0.03	1.295 ± 0.032
308.15 K	1.198 ± 0.03	1.096 ± 0.028	1.024 ± 0.026	1.003 ± 0.025	1.007 ± 0.026	1.027 ± 0.026	1.062 ± 0.027	1.114 ± 0.028	1.183 ± 0.029

COC(=O)CC(C)=O + CC(C)O
viscosity [mPa·s], 101.3 kPa
Conditions	x1 = 0.1028	x1 = 0.2052	x1 = 0.3051	x1 = 0.4085	x1 = 0.4086	x1 = 0.5084	x1 = 0.6057	x1 = 0.7079	x1 = 0.8053	x1 = 0.9038
298.15 K	1.457 ± 0.037	1.267 ± 0.032	1.195 ± 0.03	1.168 ± 0.029	–	1.16 ± 0.029	1.189 ± 0.03	1.243 ± 0.031	1.315 ± 0.032	1.419 ± 0.035
303.15 K	1.279 ± 0.032	1.124 ± 0.028	1.068 ± 0.027	1.051 ± 0.027	–	1.049 ± 0.027	1.08 ± 0.027	1.127 ± 0.028	1.197 ± 0.03	1.287 ± 0.032
308.15 K	1.023 ± 0.2	1.006 ± 0.026	0.963 ± 0.025	–	0.952 ± 0.024	0.956 ± 0.024	0.985 ± 0.025	1.032 ± 0.026	1.094 ± 0.028	1.133 ± 0.08

CS(=O)(=O)[O-].C[N+](C)(CCO)CCO + CCCO
Conditions	viscosity [mPa·s]
298.15 K, 101.33 kPa, x1 = 0.8978	965 ± 100

CCCCCCCCCCCCCCCCCCCl + CCCCC
298 K, 101.3 kPa
Conditions	viscosity [mPa·s]
x2 = 0.1054	6.009 ± 0.16
x2 = 0.2014	4.945 ± 0.13
x2 = 0.3067	3.902 ± 0.1
x2 = 0.4166	2.952 ± 0.077
x2 = 0.4993	2.325 ± 0.061
x2 = 0.6122	1.613 ± 0.042
x2 = 0.7054	1.157 ± 0.03
x2 = 0.8048	0.7477 ± 0.02
x2 = 0.9029	0.431 ± 0.011

OCC(O)CO + CCC(C)O
viscosity [mPa·s], 101.33 kPa
Conditions	x1 = 0.103	x1 = 0.2005	x1 = 0.3005	x1 = 0.4065	x1 = 0.5004	x1 = 0.6005	x1 = 0.6997	x1 = 0.7989	x1 = 0.8998
298.15 K	4.899 ± 0.5	8.259 ± 0.85	14.21 ± 1.5	26.4 ± 2.7	50.58 ± 5.3	96.78 ± 10	190.1 ± 20	327.9 ± 35	521.9 ± 56
308.15 K	3.311 ± 0.34	5.321 ± 0.54	8.761 ± 0.9	15.79 ± 1.6	27.46 ± 2.8	49.39 ± 5.1	90.98 ± 9.4	149.4 ± 15	231.6 ± 24
318.15 K	2.387 ± 0.24	3.648 ± 0.37	5.727 ± 0.59	9.681 ± 0.99	15.6 ± 1.6	26.39 ± 2.7	45.42 ± 4.6	71.57 ± 7.3	107.4 ± 11

CCOC(C)=O + Cc1ccccc1
viscosity [mPa·s], 101 kPa
Conditions	298.15 K	308.15 K
x1 = 0.045	0.538 ± 0.005	0.49 ± 0.004
x1 = 0.1	0.534 ± 0.006	–
x1 = 0.1501	0.514 ± 0.004	0.472 ± 0.004
x1 = 0.21	0.512 ± 0.005	–
x1 = 0.2483	0.495 ± 0.004	0.457 ± 0.004
x1 = 0.31	0.506 ± 0.005	–
x1 = 0.3517	0.478 ± 0.004	0.443 ± 0.004
x1 = 0.41	0.484 ± 0.005	–
x1 = 0.4469	0.464 ± 0.004	0.431 ± 0.004
x1 = 0.4912	0.459 ± 0.004	0.426 ± 0.004
x1 = 0.51	0.482 ± 0.005	–
x1 = 0.5503	0.452 ± 0.004	0.42 ± 0.004
x1 = 0.61	0.478 ± 0.005	–
x1 = 0.6489	0.443 ± 0.004	0.411 ± 0.004
x1 = 0.71	0.455 ± 0.005	–
x1 = 0.749	0.436 ± 0.004	0.403 ± 0.004
x1 = 0.81	0.445 ± 0.005	–
x1 = 0.8507	0.431 ± 0.004	0.395 ± 0.004
x1 = 0.9	0.428 ± 0.005	–
x1 = 0.9432	0.429 ± 0.004	0.39 ± 0.004
x2 = 0.1513	0.466 ± 0.006	–
x2 = 0.442	0.481 ± 0.007	–
x2 = 0.7034	0.509 ± 0.007	–

CCCC[n+]1ccc(C)cc1.[Cl][Al-]([Cl])([Cl])[Cl] + Cc1ccccc1
101 kPa, x2 = 0.38
Conditions	viscosity [mPa·s]
298.15 K	13.8 ± 0.6
303.15 K	12.8 ± 0.6
308.15 K	10.8 ± 0.5
313.15 K	9.4 ± 0.4
318.15 K	8.5 ± 0.4
323.15 K	7.6 ± 0.3

CCOc1ccccc1 + CCCCCCCCCO
viscosity [mPa·s], 101.3 kPa
Conditions	x1 = 0.1012	x1 = 0.2001	x1 = 0.3006	x1 = 0.4009	x1 = 0.5013	x1 = 0.6023	x1 = 0.7018	x1 = 0.8005	x1 = 0.8997
293.15 K	8.86 ± 0.19	6.725 ± 0.14	5.095 ± 0.11	3.858 ± 0.089	2.948 ± 0.072	2.293 ± 0.059	1.853 ± 0.051	1.578 ± 0.045	1.424 ± 0.043
298.15 K	7.33 ± 0.16	5.611 ± 0.12	4.298 ± 0.098	3.299 ± 0.079	2.57 ± 0.065	2.039 ± 0.054	1.692 ± 0.048	1.488 ± 0.08	1.361 ± 0.1
308.15 K	5.241 ± 0.12	4.17 ± 0.095	3.295 ± 0.079	2.614 ± 0.065	2.089 ± 0.055	1.697 ± 0.048	1.394 ± 0.042	1.17 ± 0.038	1.023 ± 0.035
318.15 K	3.906 ± 0.09	3.16 ± 0.076	2.525 ± 0.064	2.033 ± 0.054	1.654 ± 0.047	1.371 ± 0.042	1.152 ± 0.037	0.9714 ± 0.034	0.8556 ± 0.032
